Assay results published in ChEMBL document CHEMBL4190383, “Hit discovery of Mycobacterium tuberculosis inosine 5'-monophosphate dehydrogenase, GuaB2, inhibitors” (Bioorg Med Chem Lett, 2018).
Converted amounts (≈) assume the structure as drawn. The source made the active and inactive calls. No cut-off for these calls is given here.

Tests used:
[1] = tested on: Mycobacterium tuberculosis; test: Antimicrobial activity against Mycobacterium tuberculosis H37Rv by alamar blue assay; assay type: functional
[2] = tested on: Acinetobacter baumannii; test: Growth inhibition of Acinetobacter baumannii at 32 ug/ml; assay type: functional; settings: read-out: GI
[3] = molecular target: Inosine-5'-monophosphate dehydrogenase 2 (Homo sapiens) (UniProt P12268); test: Inhibition of human IMPDH2 at 10 uM
Inosine-5'-monophosphate dehydrogenase 2 (Homo sapiens), sequence (P12268 2-514 limits assumed): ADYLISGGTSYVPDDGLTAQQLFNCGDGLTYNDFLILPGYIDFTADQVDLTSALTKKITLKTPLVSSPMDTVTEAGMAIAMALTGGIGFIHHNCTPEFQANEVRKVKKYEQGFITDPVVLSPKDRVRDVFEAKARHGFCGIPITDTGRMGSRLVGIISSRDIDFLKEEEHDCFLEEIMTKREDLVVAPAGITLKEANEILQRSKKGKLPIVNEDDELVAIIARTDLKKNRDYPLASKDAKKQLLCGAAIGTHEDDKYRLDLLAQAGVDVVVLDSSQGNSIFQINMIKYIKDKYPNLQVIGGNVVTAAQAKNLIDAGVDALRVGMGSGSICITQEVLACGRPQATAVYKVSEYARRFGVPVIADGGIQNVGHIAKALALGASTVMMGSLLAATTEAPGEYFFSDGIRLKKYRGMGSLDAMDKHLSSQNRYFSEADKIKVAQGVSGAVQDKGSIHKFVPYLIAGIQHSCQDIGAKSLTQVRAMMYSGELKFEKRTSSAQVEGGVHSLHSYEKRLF

[4] = tested on: Klebsiella pneumoniae; test: Growth inhibition of Klebsiella pneumoniae at 32 ug/ml; assay type: functional; settings: read-out: GI
[5] = Octanol/water partition coefficient , logP of the compound; assay type: physicochemical
[6] = tested on: Mycobacterium tuberculosis; test: Inhibition of Mycobacterium tuberculosis GuaB2 at 50 uM
[7] = tested on: Mycobacterium tuberculosis; test: Antimicrobial activity against Mycobacterium tuberculosis SRMV2.6 H37Rv by alamar blue assay; assay type: functional
[8] = tested on: Escherichia coli; test: Growth inhibition of Escherichia coli at 32 ug/ml; assay type: functional; settings: read-out: GI
[9] = tested on: Cryptococcus neoformans; test: Growth inhibition of Cryptococcus neoformans var. grubii at 32 ug/ml; assay type: functional; settings: read-out: GI
[10] = tested on: Candida albicans; test: Growth inhibition of Candida albicans at 32 ug/ml; assay type: functional; settings: read-out: GI
[11] = tested on: Staphylococcus aureus; test: Growth inhibition of methicillin-resistant Staphylococcus aureus at 32 ug/ml; assay type: functional; settings: read-out: GI
[12] = tested on: Pseudomonas aeruginosa; test: Growth inhibition of Pseudomonas aeruginosa at 32 ug/ml; assay type: functional; settings: read-out: GI
[13] = Inhibition of Mycobacterium tuberculosis GuaB2
[14] = tested on: Mycobacterium tuberculosis; test: Antimicrobial activity against Mycobacterium tuberculosis H37Rv in presence of 0.08 to 5 ng/ml anhydrotetracycline-induced guaB2 gene silencing by alamar blue assay; assay type: functional, organism-based

Compound: O=C1OCc2cc(NC(=O)c3cccnc3Cl)ccc21
- MIC90 [1]: > 100 µM

Compound: CC(C)Cc1ccc(C(C)C(=O)Nc2ccc3c(c2)COC3=O)cc1 (configuration not stated)
- MIC90 [1]: > 100 µM

Compound: CC(C(=O)Nc1ccc2c(c1)COC2=O)c1cccc(C(=O)c2ccccc2)c1 (configuration not stated)
- MIC90 [1]: 100 µM (≈ 38.5 µg/mL)

Compound: COc1ccc(NC(=O)Nn2c(C)nc3ccsc3c2=O)cc1
- MIC90 [1]: > 100 µM

Compound: Cc1nnc(-c2ccc(OCc3cnnn3Cc3ccccc3F)cc2)o1
- inhibition of growth at 32 µg/mL [2]: -8.76%
- MIC90 [1]: 100 µM (≈ 36.5 µg/mL)
- inhibition [3]: 0.1%
- inhibition of growth at 32 µg/mL [4]: -2.49%
- logP [5]: 2.5 to 3.5
- inhibition [6]: 71%
- MIC90 [7]: > 100 µM
- inhibition of growth at 32 µg/mL [8]: -5.41%
- inhibition of growth at 32 µg/mL [9]: -88.2%
- inhibition of growth at 32 µg/mL [10]: 2.24%
- inhibition of growth at 32 µg/mL [11]: 7.55%
- inhibition of growth at 32 µg/mL [12]: 0.96%

Compound: O=C(O)/C=C\C(=O)NC12CC3CC(CC(C3)C1)C2
- MIC90 [1]: > 100 µM

Compound: O=C(COc1cccc2ccccc12)Nc1ccc2c(c1)COC2=O
- MIC90 [1]: > 100 µM

Compound: O=C(CNc1ccc(F)cc1)Nc1ccc2c(c1)COC2=O
- MIC90 [1]: > 100 µM

Compound: Cc1ccccc1NC(=S)Nc1ccc(-c2cc(Cl)cc(Cl)c2)cn1
- MIC90 [1]: > 100 µM

Compound: COc1ccc(NC(=O)CC/C(C)=C/Cc2c(O)c3c(c(C)c2OC)COC3=O)cc1
- MIC90 [1]: > 100 µM

Compound: Clc1cccc(Cn2nncc2COc2ccc3ccccc3c2)c1
- MIC90 [1]: > 100 µM

Compound: O=C(O)COCC(=O)Nc1ccccc1C(=O)O
- MIC90 [1]: > 100 µM

Compound: COc1ccccc1NC(=O)Nn1c(C)nc2sccc2c1=O
- MIC90 [1]: > 100 µM

Compound: COc1ccc(-c2ccc(NC(=O)CCC(=O)O)cc2)cn1
- MIC90 [1]: > 100 µM

Compound: Cc1nc2sccc2c(=O)n1NC(=O)Nc1ccc([N+](=O)[O-])cc1
- MIC90 [1]: > 100 µM

Compound: Cc1nnc(-c2ccc(OCc3cnnn3Cc3ccc(F)cc3)cc2)o1
- MIC90 [1]: > 100 µM

Compound: Cc1ccc(CNC(=O)/C=C\C(=O)O)cc1
- MIC90 [1]: > 100 µM

Compound: Cc1nc2sccc2c(=O)n1NC(=O)Nc1ccc(F)cc1
- MIC90 [1]: > 100 µM

Compound: Cc1nnc(-c2ccc(OCc3cnnn3Cc3cccc(Cl)c3)cc2)o1
- inhibition of growth at 32 µg/mL [2]: -12.1%
- MIC90 [1]: 50 µM (≈ 19.1 µg/mL)
- inhibition [3]: 0.1%
- inhibition of growth at 32 µg/mL [4]: 2.15%
- inhibition [6]: inactive
- MIC90 [7]: > 100 µM
- inhibition of growth at 32 µg/mL [8]: -5.62%
- inhibition of growth at 32 µg/mL [9]: -76.2%
- inhibition of growth at 32 µg/mL [10]: -0.27%
- inhibition of growth at 32 µg/mL [11]: 10.3%
- inhibition of growth at 32 µg/mL [12]: 5.84%

Compound: Cc1nnc(-c2ccc(OCc3cnnn3Cc3ccc(-c4ccccc4)cc3)cc2)o1
- inhibition of growth at 32 µg/mL [2]: -14.1%
- MIC90 [1]: 100 µM (≈ 42.3 µg/mL)
- inhibition [3]: 0.1%
- inhibition of growth at 32 µg/mL [4]: 2.97%
- logP [5]: > 4.5
- inhibition [6]: 72.6%
- MIC90 [7]: 100 µM (≈ 42.3 µg/mL)
- inhibition of growth at 32 µg/mL [8]: -7.2%
- inhibition of growth at 32 µg/mL [9]: -70.2%
- inhibition of growth at 32 µg/mL [10]: -0.24%
- inhibition of growth at 32 µg/mL [11]: 14%
- inhibition of growth at 32 µg/mL [12]: 7.93%

Compound: CC(C(=O)Nc1ccc2c(c1)COC2=O)c1ccc(C(=O)c2ccccc2)cc1 (configuration not stated)
- inhibition of growth at 32 µg/mL [2]: 1.89%
- IC50 [13]: 6.2 µM
- MIC90 [1]: 100 µM (≈ 38.5 µg/mL)
- inhibition [3]: 23%
- inhibition of growth at 32 µg/mL [4]: 15.6%
- logP [5]: 3.67
- inhibition [6]: 95.2%
- MIC90 [7]: 100 µM (≈ 38.5 µg/mL)
- inhibition of growth at 32 µg/mL [8]: -2.97%
- Activity [14]: Active
- inhibition of growth at 32 µg/mL [9]: -94.7%
- inhibition of growth at 32 µg/mL [10]: 5.25%
- inhibition of growth at 32 µg/mL [11]: 25.2%
- inhibition of growth at 32 µg/mL [12]: 3.08%

Compound: COC(=O)c1ccc(OCC(=O)Nc2ccc3c(c2)COC3=O)cc1
- MIC90 [1]: > 100 µM

Compound: Cc1nc2sccc2c(=O)n1NC(=O)/C=C/c1ccccc1
- MIC90 [1]: > 100 µM

Compound: COc1cccc(NC(=O)Nn2c(C)nc3ccsc3c2=O)c1
- MIC90 [1]: > 100 µM

Compound: O=C(O)CCCC(=O)Nc1ccc(N2CC3(COC3)C2)c(F)c1
- MIC90 [1]: > 100 µM

Compound: Fc1ccccc1NC(=S)Nc1ccc(-c2cccc(Cl)c2)cn1
- MIC90 [1]: > 100 µM

Compound: COc1cc(C(=O)/C=C/c2cc(OC)c(OC)c(OC)c2)ccc1OCC(=O)Nc1ccc2c(c1)COC2=O
- MIC90 [1]: > 100 µM

Compound: COc1c(C)c2c(c(O)c1C/C=C(\C)CCC(=O)O)C(=O)OC2 [MYCOPHENOLIC ACID]
- inhibition of growth at 32 µg/mL [2]: 19.4%
- IC50 [13]: 27.2 µM
- MIC90 [1]: 50 µM (≈ 16 µg/mL)
- inhibition [3]: 99.9%
- inhibition of growth at 32 µg/mL [4]: 3.78%
- logP [5]: 2.68
- inhibition [6]: 83%
- MIC90 [7]: 50 µM (≈ 16 µg/mL)
- inhibition of growth at 32 µg/mL [8]: 2.37%
- Activity [14]: Active
- inhibition of growth at 32 µg/mL [9]: 91.4%
- inhibition of growth at 32 µg/mL [10]: 96.9%
- inhibition of growth at 32 µg/mL [11]: 52.4%
- inhibition of growth at 32 µg/mL [12]: 18.8%

Compound: COc1ccc2[nH]c(S(=O)(=O)Cc3c(C)c(OC)c(C)c[n+]3[O-])nc2c1
- MIC90 [1]: > 100 µM

Compound: Cc1ccc(NC(=O)Nn2c(C)nc3sccc3c2=O)cc1Cl
- MIC90 [1]: > 100 µM

Compound: Fc1ccccc1NC(=S)Nc1ccc(-c2ccccc2Cl)cn1
- MIC90 [1]: > 100 µM

Compound: Fc1ccccc1Cn1nncc1COc1ccc2ccccc2c1
- MIC90 [1]: > 100 µM

Compound: O=C(O)CCC(=O)NCc1ccc2c(c1)OCO2
- MIC90 [1]: > 100 µM

Compound: O=C(Cn1c(-c2ccncc2)nc2cc(Br)cnc21)Nc1cccc2ccccc12
- MIC90 [1]: > 100 µM

Compound: O=C(COc1ccc2ccccc2c1)Nc1ccc2c(c1)COC2=O
- MIC90 [1]: > 100 µM

Compound: COc1cccc(Cn2nncc2COc2ccc3ccccc3c2)c1
- MIC90 [1]: 50 µM (≈ 17.3 µg/mL)
- inhibition [3]: 24.9%
- inhibition [6]: 52.4%
- MIC90 [7]: > 100 µM
